In US20230399313A1, “BIOLOGICAL ACTIVITIES OF 5-(2-(4-(4-FLUORO-2-METHYL-1H-INDOL-5-YLOXY)-6-METHOXYQUINOLIN-7-YLOXY)ETHYL)-5-AZASPIRO[2.4]-HEPTAN-7-OL CRYSTALLINE, PHOSPHORIC ACID SALT AND ITS ENANTIOMERS” (Advenchen Pharmaceuticals, LLC, priority 2022, published 2023):

Columns and labels:
KDR(h) (VEGFr2) = KDR(h) (VEGFr2) (Homo sapiens, UniProt P35968); assay: Kinase inhibition; type: biochemical
Excerpt: (§1) […]. In vitro tyrosine kinase inhibition activities can be measured via commercial resources. Some of these tests can also be contracted with Eurofin or Reaction Biology for screening.
For the kinase inhibition tests, receptor tyrosine kinases are selected from FGFR1(h), FGFR2(h), FGFR3(h), Flt1(h) (VEGFr1), Flt4(h) (VEGFr3), KDR(h) (VEGFr2), Aurora-B, PDGFRα(h) and PDGFRβ(h). […]. […]

Aurora-B = Aurora-B (Homo sapiens, UniProt Q96GD4); assay: Kinase inhibition; type: biochemical
Excerpt: (§2) In vitro tyrosine kinase inhibition activities can be measured via commercial resources. Some of these tests can also be contracted with Eurofin or Reaction Biology for screening.
(§3) For the kinase inhibition tests, receptor tyrosine kinases are selected from FGFR1(h), FGFR2(h), FGFR3(h), Flt1(h) (VEGFr1), Flt4(h) (VEGFr3), KDR(h) (VEGFr2), Aurora-B, PDGFRα(h) and PDGFRβ(h).

Flt1(h) (VEGFr1) = Flt1(h) (VEGFr1) (Homo sapiens, UniProt P17948); assay: Kinase inhibition; type: biochemical
Excerpt: as §2, §3

Flt4(h) (VEGFr3) = Flt4(h) (VEGFr3) (Homo sapiens, UniProt P35916); assay: Kinase inhibition; type: biochemical
Excerpt: as §2, §3

FGFR2(h) = FGFR2(h) (Homo sapiens, UniProt P21802); assay: Kinase inhibition; type: biochemical
Excerpt: as §2, §3

FGFR3(h) = FGFR3(h) (Homo sapiens, UniProt P22607); assay: Kinase inhibition; type: biochemical
Excerpt: as §2, §3

FGFR1(h) = FGFR1(h) (Homo sapiens, UniProt P11362); assay: Kinase inhibition; type: biochemical
Excerpt: as §2, §3

[1] = Stability of amorphous and crystalline form API at 60° C. (HPLC related substances); type: physicochemical
Procedure: The samples of amorphous and crystalline form API of Compound A were placed in clean containers and the environmental temperature was controlled at 60° C. The purity of amorphous (Compound A-Amp) and crystalline form (Compound A-Xln) of Compound A were tested at Day 0, Day 10 and Day 30. Samples of amorphous and crystalline form APIs were measured, and the appropriate amount of diluent was added to dissolve with sonication. The concentration was controlled at 0.2 mg/ml and the purification was determined by HPLC with UV detector at 230 nm. Results were listed in the table as follows and the fitted curve is in Drawing Sections as FIG. 6.

A2780 = assay: In vitro MTT (proliferation) assay; type: cell-based; conditions: Homo sapiens, Ovary
K562 = assay: In vitro MTT (proliferation) assay; type: cell-based; conditions: Homo sapiens, Blood
786-O = assay: In vitro MTT (proliferation) assay; type: cell-based; conditions: Homo sapiens, 786-0, Kidney
SGC7901 = assay: In vitro MTT (proliferation) assay; type: cell-based; conditions: Homo sapiens, SGC-7901, Stomach
PDGFRα(h) = PDGFRα(h) (Homo sapiens, UniProt P16234); assay: Kinase inhibition; type: biochemical
Excerpt: as §1
(§4) For the kinase inhibition tests, receptor tyrosine kinases are selected from FGFR1(h), FGFR2(h), FGFR3(h), Flt1(h) (VEGFr1), Flt4(h) (VEGFr3), KDR(h) (VEGFr2), Aurora-B, PDGFRα(h) and PDGFRβ(h). […] […].

PDGFRβ(h) = PDGFRβ(h) (Homo sapiens, UniProt P09619); assay: Kinase inhibition; type: biochemical
Excerpt: as §1, §4

95-D = assay: In vitro MTT (proliferation) assay; type: cell-based; conditions: Lung
[2] = system: murine colorectal CT26 cell line; assay: Murine colorectal CT26 model, combination with anti-mouse PD-1 antibody; type: in vivo, mice; conditions: for Mean tumor volume D0: D0 (first drug administration time, baseline); for Mean tumor volume D0 / Mean tumor volume D17 / T/C D17: CT26 mice
SKOV3 = assay: In vitro MTT (proliferation) assay; type: cell-based; conditions: Homo sapiens, SK-OV-3; Ovary, SKOV3; read-out: IC50
Procedure: (§5) The inhibitions of Compound A-Xln, Compound A-P-Xln and two chiral isomers (Compound R-A, Compound S-A) to cancer cell lines are tested via in vitro MTT assay. Cancer cell lines are selected from PANC-1, NCI-H157, MDA-MB-231, Hela, PC-3, BEL7404, MKN45, Ishikawa, Saos-2, SKOV3, SW579 and HCT116 cell lines. The IC50 values are in the micromole scale.
(§6) In vitro MTT (proliferation) assay was performed with compound from above examples to give following inhibition results: […]

HCT-116 = assay: In vitro MTT (proliferation) assay; type: cell-based; conditions: Homo sapiens, Colon, read-out: IC50
Procedure: as §5, §6

Hela = assay: In vitro MTT (proliferation) assay; type: cell-based; conditions: Homo sapiens; Cervix, Hela; read-out: IC50
Procedure: as §5, §6

MDA-MB-231 = assay: In vitro MTT (proliferation) assay; type: cell-based; conditions: Homo sapiens; Breast, MDA-MB-231; read-out: IC50
Procedure: as §5, §6

U937 = assay: In vitro MTT (proliferation) assay; type: cell-based; conditions: Homo sapiens, U-937, Blood
Procedure: as §5, §6

Molt-4 = assay: In vitro MTT (proliferation) assay; type: cell-based; conditions: Homo sapiens, Blood
SMMC-7721 = assay: In vitro MTT (proliferation) assay; type: cell-based; conditions: Homo sapiens, Liver
HepG2 = assay: In vitro MTT (proliferation) assay; type: cell-based; conditions: Homo sapiens, Liver
HL-60 = assay: In vitro MTT (proliferation) assay; type: cell-based; conditions: Homo sapiens, Blood
SKBR3 = assay: In vitro MTT (proliferation) assay; type: cell-based; conditions: Homo sapiens, SK-BR-3, Breast
[3] = high temperature 60° C., 10 days
[4] = high temperature 60° C., 30 days

Sequence of KDR(h) (VEGFr2) (P35968 20-1356): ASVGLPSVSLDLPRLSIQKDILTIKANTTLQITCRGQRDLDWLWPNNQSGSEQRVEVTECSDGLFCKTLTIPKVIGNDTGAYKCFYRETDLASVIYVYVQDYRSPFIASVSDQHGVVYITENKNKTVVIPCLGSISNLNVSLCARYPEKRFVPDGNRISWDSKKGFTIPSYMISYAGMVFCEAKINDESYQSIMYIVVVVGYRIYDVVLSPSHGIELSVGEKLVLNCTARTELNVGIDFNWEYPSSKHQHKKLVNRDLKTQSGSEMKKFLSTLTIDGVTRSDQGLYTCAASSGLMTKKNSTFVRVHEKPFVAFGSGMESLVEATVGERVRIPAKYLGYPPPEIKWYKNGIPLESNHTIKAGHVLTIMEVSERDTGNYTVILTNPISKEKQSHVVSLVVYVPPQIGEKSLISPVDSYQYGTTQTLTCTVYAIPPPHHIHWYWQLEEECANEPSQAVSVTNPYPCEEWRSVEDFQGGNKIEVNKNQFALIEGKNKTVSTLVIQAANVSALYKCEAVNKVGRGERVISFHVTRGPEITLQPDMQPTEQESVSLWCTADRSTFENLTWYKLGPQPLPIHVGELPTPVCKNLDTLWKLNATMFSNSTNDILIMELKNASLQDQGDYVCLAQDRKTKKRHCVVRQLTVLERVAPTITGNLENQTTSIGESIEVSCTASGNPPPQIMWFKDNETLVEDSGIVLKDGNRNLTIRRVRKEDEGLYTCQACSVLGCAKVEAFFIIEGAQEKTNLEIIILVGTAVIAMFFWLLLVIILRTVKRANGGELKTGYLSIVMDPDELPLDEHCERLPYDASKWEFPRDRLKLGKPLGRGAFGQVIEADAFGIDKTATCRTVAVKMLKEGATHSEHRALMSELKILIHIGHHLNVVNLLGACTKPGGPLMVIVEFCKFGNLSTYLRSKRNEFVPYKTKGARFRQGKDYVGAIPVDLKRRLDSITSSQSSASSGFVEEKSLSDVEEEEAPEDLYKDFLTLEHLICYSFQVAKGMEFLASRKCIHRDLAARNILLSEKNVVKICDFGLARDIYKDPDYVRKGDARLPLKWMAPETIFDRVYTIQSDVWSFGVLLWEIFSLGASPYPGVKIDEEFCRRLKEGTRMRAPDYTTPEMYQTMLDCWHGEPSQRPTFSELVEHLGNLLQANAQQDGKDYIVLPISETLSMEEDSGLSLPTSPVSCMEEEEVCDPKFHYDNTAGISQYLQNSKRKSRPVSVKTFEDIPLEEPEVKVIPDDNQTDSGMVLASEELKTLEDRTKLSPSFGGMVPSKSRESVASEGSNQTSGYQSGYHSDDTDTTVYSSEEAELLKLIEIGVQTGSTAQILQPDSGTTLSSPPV
Sequence of PDGFRβ(h) (P09619 33-1106): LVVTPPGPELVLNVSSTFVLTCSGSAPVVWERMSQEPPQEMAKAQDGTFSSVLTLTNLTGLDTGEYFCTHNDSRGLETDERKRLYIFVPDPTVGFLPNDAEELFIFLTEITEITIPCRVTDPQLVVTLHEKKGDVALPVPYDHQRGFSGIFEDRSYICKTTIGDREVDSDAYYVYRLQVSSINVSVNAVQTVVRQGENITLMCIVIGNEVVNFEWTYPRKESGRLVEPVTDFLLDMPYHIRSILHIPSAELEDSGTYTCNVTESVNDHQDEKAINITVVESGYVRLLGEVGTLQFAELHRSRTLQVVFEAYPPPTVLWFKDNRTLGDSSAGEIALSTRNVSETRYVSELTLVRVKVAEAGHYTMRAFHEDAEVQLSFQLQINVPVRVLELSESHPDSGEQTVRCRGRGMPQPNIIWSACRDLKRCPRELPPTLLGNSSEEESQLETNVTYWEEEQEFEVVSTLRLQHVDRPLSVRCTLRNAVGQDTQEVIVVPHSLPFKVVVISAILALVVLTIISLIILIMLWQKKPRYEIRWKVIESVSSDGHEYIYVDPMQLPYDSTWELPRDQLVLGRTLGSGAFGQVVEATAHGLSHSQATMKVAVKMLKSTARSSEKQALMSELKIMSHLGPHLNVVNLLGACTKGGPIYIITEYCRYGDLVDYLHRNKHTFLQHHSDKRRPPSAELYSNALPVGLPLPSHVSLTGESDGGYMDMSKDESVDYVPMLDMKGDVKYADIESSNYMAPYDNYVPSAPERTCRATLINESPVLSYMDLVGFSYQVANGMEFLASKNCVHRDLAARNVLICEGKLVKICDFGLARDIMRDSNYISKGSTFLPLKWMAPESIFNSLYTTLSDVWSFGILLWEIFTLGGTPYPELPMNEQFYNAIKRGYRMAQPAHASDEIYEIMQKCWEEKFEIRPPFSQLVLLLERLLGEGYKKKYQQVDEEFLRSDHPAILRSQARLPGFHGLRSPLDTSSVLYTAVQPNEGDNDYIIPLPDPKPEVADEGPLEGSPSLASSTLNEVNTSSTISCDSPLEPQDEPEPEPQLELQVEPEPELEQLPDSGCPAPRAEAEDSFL
Sequence of Aurora-B (Q96GD4 whole entry): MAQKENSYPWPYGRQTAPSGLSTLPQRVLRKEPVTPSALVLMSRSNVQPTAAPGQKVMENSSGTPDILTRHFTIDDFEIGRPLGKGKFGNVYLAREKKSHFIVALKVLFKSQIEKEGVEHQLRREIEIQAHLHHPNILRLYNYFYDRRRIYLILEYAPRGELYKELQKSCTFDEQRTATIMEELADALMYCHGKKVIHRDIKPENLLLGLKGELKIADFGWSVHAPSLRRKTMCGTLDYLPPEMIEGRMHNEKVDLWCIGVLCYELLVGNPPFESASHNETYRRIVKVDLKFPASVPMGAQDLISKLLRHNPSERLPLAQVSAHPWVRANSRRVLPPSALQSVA
Sequence of FGFR2(h) (P21802 22-821): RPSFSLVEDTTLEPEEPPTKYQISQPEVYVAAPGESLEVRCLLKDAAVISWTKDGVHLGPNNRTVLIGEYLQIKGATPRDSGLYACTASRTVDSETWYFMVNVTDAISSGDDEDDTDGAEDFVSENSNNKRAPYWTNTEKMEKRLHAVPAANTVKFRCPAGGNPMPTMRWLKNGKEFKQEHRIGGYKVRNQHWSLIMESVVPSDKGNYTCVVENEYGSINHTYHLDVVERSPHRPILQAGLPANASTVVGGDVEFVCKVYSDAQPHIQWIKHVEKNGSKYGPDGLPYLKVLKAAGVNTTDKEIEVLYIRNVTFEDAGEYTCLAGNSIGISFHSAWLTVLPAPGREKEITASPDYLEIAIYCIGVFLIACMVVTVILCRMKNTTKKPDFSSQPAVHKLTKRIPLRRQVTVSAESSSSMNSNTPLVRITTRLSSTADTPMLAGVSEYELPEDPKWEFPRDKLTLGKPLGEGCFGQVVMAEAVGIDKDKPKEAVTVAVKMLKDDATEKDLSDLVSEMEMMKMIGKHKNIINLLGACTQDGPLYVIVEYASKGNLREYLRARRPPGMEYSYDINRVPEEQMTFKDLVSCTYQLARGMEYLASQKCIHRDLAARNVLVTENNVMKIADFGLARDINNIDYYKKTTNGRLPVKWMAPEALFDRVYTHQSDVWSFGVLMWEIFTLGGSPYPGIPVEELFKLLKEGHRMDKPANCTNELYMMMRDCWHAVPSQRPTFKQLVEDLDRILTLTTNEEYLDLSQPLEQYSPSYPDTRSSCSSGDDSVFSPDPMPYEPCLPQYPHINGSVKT
Sequence of Flt4(h) (VEGFr3) (P35916 25-1363): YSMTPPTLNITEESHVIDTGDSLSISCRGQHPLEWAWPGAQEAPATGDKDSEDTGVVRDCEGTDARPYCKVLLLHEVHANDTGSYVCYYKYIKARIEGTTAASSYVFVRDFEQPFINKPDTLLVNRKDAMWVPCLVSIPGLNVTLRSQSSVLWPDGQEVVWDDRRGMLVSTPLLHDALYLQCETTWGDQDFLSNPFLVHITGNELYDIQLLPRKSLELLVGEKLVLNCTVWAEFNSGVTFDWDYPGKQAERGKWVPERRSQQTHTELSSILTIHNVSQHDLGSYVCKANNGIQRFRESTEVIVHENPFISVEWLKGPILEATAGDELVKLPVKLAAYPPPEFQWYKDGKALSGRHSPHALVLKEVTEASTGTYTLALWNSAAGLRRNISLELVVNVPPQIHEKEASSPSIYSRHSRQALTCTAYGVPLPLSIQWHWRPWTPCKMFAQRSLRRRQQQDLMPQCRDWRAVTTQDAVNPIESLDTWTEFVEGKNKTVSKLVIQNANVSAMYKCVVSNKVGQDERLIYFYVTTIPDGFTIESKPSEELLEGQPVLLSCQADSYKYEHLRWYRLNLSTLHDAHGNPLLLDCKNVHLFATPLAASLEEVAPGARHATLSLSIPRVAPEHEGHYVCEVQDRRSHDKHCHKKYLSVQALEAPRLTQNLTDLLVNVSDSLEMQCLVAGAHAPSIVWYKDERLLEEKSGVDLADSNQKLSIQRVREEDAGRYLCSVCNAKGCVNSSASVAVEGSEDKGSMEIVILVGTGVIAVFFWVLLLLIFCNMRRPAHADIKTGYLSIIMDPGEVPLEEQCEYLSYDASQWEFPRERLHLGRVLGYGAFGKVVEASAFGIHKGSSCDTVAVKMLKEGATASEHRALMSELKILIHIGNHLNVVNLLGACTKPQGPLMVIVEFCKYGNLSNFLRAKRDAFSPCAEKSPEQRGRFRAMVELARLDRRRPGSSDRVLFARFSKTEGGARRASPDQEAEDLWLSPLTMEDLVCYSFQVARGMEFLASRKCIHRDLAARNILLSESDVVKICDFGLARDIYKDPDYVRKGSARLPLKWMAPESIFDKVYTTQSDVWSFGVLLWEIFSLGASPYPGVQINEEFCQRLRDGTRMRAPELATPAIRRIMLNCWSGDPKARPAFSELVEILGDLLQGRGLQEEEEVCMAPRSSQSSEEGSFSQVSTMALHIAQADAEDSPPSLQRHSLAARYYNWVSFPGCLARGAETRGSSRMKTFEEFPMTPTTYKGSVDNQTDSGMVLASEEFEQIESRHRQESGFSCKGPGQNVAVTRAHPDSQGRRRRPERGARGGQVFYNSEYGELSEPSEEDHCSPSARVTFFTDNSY

## COc1cc2c(Oc3ccc4[nH]c(C)cc4c3F)ccnc2cc1OCCN1CC(O)C2(CC2)C1 (centres unmarked) [Compound A-Xln, 5-(2-(4-(4-fluoro-2-methyl-1H-indol-5-yloxy)-6-methoxyquinolin-7-yloxy)ethyl)-5-azaspiro[2.4]-heptan-7-ol]
KDR(h) (VEGFr2)
  IC50: 0.015 µM
Aurora-B
  IC50: 0.047 µM
Flt1(h) (VEGFr1)
  IC50: 0.004 µM
Flt4(h) (VEGFr3)
  IC50: 0.002 µM
FGFR2(h)
  IC50: 0.008 µM
FGFR3(h)
  IC50: 0.006 µM
FGFR1(h)
  IC50: 0.004 µM
[1]; 0 day
  Maximum impurities (%): 0.032%
  Total impurities (%): 0.078%
[1]; 60° C., up to 30 days
  Stability compared with the amorphous form: better stability than A-Amp
[1]; [3]
  Maximum impurities (%): 0.039%
  Total impurities (%): 0.115%
[1]; [4]
  Maximum impurities (%): 0.063%
  Total impurities (%): 0.194%
A2780
  IC50: 2.63 ± 0.27 µM
K562
  IC50: 6.37 ± 2.56 µM
786-O
  IC50: 10.1 ± 3.97 µM
SGC7901
  IC50: 6.64 ± 0.81 µM
PDGFRα(h)
  IC50: 0.16 µM
PDGFRβ(h)
  IC50: 0.026 µM
95-D
  IC50: 4.92 ± 2.26 µM
[2]; 5 mg/kg/Qd i.g.
  Mean tumor volume D0: 127.8 mm^3
  Mean tumor volume D17: 1625.3 mm^3
  T/C D17: 72.04%
[2]; 15 mg/kg/Qd i.g.
  Mean tumor volume D0: 128.5 mm^3
  Mean tumor volume D17: 829.0 mm^3
  T/C D17: 36.67%
[2]; CT26 model, Compound A-Xln once daily plus anti-mouse PD-1 200 μg/mouse every 3 days
  Efficacy of combination treatment with an anti-PD1 antibody agent: increased efficacy
SKOV3
  IC50: 17.1 ± 0.55 µM
HCT-116
  IC50: 11.7 ± 3.69 µM
Hela
  IC50: 11.2 ± 2.71 µM
MDA-MB-231
  IC50: 7.77 ± 0.02 µM
U937
  IC50: 10 ± 2.28 µM
Molt-4
  IC50: 5.53 ± 2.78 µM
SMMC-7721
  IC50: 8.01 ± 2.53 µM
HepG2
  IC50: 9.12 ± 3.06 µM
HL-60
  IC50: 1.98 ± 1.13 µM
SKBR3
  IC50: 12.2 ± 2 µM
